Literature values, collected in patent US20080207756A1, “Bio-absorbable oil suspension” (ATRIUM MEDICAL CORPORATION, priority 2007, published 2008).
Where a name gives a salt, the structure may show the parent alone.

Conditions: liquid Bupivacaine HCL without epinephrine

Which half life does the source give for `CCCCN1CCCCC1C(=O)Nc1c(C)cccc1C` (stereo not shown) [Bupivacaine HCL] here?
The half life was 2 to 3 h.
